In ChEMBL document CHEMBL1201862, “PubChem BioAssay data set” (2004):
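Dose response: 5 concentrations. Exposure: 48 h. Format: 96-well plates. Endpoint: linear interpolation; highest concentration if not reached. The concentration for 50% growth inhibition is given as GI50.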 Active and inactive are the calls of the source. Rule as the data show it: active = GI50 up to about 1.1 µM and inactive = higher.

Legend:
Assay in all cases: DTP human tumour cell line panel, 48 h
[1] = test system: CCRF-CEM
[2] = test system: ACHN
[3] = test system: COLO 205
[4] = test system: HCT-15
[5] = test system: U-251
[6] = test system: UACC-62
[7] = test system: M14
[8] = test system: SK-OV-3
[9] = test system: SNB-19
[10] = test system: CAKI-1
[11] = test system: SK-MEL-28
[12] = test system: SR
[13] = test system: HL-60
[14] = test system: A498
[15] = test system: SNB-75
[16] = test system: HOP-62
[17] = test system: SF-295
[18] = test system: RPMI-8226
[19] = test system: NCI-H226
[20] = test system: LOX IMVI

Structure (SMILES) | GI50 [1] | GI50 [2] | GI50 [3] | GI50 [4] | GI50 [5] | GI50 [6] | GI50 [7] | GI50 [8] | GI50 [9] | GI50 [10] | GI50 [11] | GI50 [12] | GI50 [13] | GI50 [14] | GI50 [15] | GI50 [16] | GI50 [17] | GI50 [18] | GI50 [19] | GI50 [20]
CC(OC(C)(C)C)[C@H](NC(=O)OCC(Cl)(Cl)Cl)C(=O)O (stereo partly drawn) | > 100 µM (inactive) | > 100 µM (inactive) | > 100 µM (inactive) | > 100 µM | > 100 µM (inactive) | > 100 µM (inactive) | > 100 µM (inactive) | > 100 µM (inactive) | > 100 µM (inactive) | > 100 µM (inactive) | > 100 µM (inactive) | > 100 µM (inactive) | > 100 µM (inactive) | > 100 µM (inactive) | > 100 µM (inactive) | > 100 µM (inactive) | > 100 µM (inactive) | > 100 µM (inactive) |  | 
O=C(CC(C(=O)c1cccs1)c1ccc2c(c1)OCO2)c1ccc(Br)cc1 (stereo not drawn) | > 100 µM (inactive) | > 100 µM (inactive) | > 100 µM (inactive) | > 100 µM | > 100 µM (inactive) | > 100 µM (inactive) | > 100 µM (inactive) | > 100 µM (inactive) | 8.51 µM (inactive) | > 100 µM (inactive) | > 100 µM (inactive) | > 100 µM (inactive) | > 100 µM (inactive) | > 100 µM (inactive) | > 100 µM (inactive) | > 100 µM (inactive) | > 100 µM (inactive) | > 100 µM (inactive) | > 100 µM (inactive) | 
O=[N+]([O-])c1ccc(C2Nn3c(nnc3-c3cccc([N+](=O)[O-])c3)S2)cc1 (stereo not drawn) | 36.8 µM (inactive) | > 100 µM (inactive) | > 100 µM (inactive) | > 100 µM | > 100 µM (inactive) | > 100 µM (inactive) | > 100 µM (inactive) | > 100 µM (inactive) | > 100 µM (inactive) | > 100 µM (inactive) |  | 84.1 µM (inactive) | 89.3 µM (inactive) | > 100 µM (inactive) | > 100 µM (inactive) | > 100 µM (inactive) | > 100 µM (inactive) | 42.7 µM (inactive) | 0.0735 µM (active) | 82 µM (inactive)
CCOC(=O)CC(=O)CSc1c(-c2ccccc2)c(=O)n(-c2ccccc2)c(=S)n1-c1ccccc1 | 51.4 µM (inactive) | > 100 µM (inactive) | > 100 µM (inactive) | > 100 µM | > 100 µM (inactive) | > 100 µM (inactive) | > 100 µM (inactive) | > 100 µM (inactive) | > 100 µM (inactive) | > 100 µM (inactive) | > 100 µM (inactive) | 95.1 µM (inactive) | > 100 µM (inactive) | > 100 µM (inactive) | > 100 µM (inactive) | > 100 µM (inactive) | > 100 µM (inactive) |  | > 100 µM (inactive) | > 100 µM (inactive)
O=C(/C=C/c1cccc2ccccc12)c1ccccc1Cl | 3.72 µM (inactive) | 17.5 µM (inactive) | > 100 µM (inactive) | 6.53 µM | 11.6 µM (inactive) | 14.1 µM (inactive) | 15.5 µM (inactive) | 21.4 µM (inactive) | 14.1 µM (inactive) | 14.4 µM (inactive) | 19.1 µM (inactive) | 4.35 µM (inactive) | 2.65 µM (inactive) | 16 µM (inactive) | 16.7 µM (inactive) | 18.6 µM (inactive) |  | 5.43 µM (inactive) | > 100 µM (inactive) | 
Cc1ccc(-c2cc(-c3ccco3)c(C#N)c(=O)n2C2OC(CO)C(O)C(O)C2O)cc1 (stereo not drawn) | 66.2 µM (inactive) | 42.9 µM (inactive) | > 100 µM (inactive) | 83.6 µM | 33.3 µM (inactive) | 42.3 µM (inactive) | 67.5 µM (inactive) | 28.7 µM (inactive) | 68.2 µM (inactive) |  | 37 µM (inactive) | > 100 µM (inactive) | > 100 µM (inactive) | 21.6 µM (inactive) |  | 49.5 µM (inactive) | 33.6 µM (inactive) | 73.3 µM (inactive) | 58.6 µM (inactive) | 68.1 µM (inactive)
N#CC1(C#N)C(=O)c2ccncc2C1=O | > 100 µM (inactive) | > 100 µM (inactive) | > 100 µM (inactive) | > 100 µM | > 100 µM (inactive) | > 100 µM (inactive) | > 100 µM (inactive) | > 100 µM (inactive) | > 100 µM (inactive) | > 100 µM (inactive) | > 100 µM (inactive) | > 100 µM (inactive) | > 100 µM (inactive) | > 100 µM (inactive) | > 100 µM (inactive) |  | > 100 µM (inactive) | > 100 µM (inactive) | > 100 µM (inactive) | 
CC(=O)O[C@@]12CO[C@@H]1CC(O)[C@@]1(C)C(=O)[C@H](O)C3=C(C)C(O)C[C@@](O)(C(OC(=O)c4ccccc4)C12)C3(C)C (stereo partly drawn) | 0.454 µM (active) | 51.2 µM (inactive) | 0.434 µM (active) | 24.7 µM | 0.828 µM (active) | 0.508 µM (active) | 2.59 µM (inactive) | 0.767 µM (active) | 3.3 µM (inactive) | 24.8 µM (inactive) |  | 1.06 µM (active) | 0.41 µM (active) | 5.82 µM (inactive) | 0.507 µM (active) | 6.05 µM (inactive) | 5.32 µM (inactive) | 0.519 µM (active) | > 100 µM (inactive) | 0.839 µM (active)
COc1ccc(-c2cc(-c3cc(OC)c(OC)c(OC)c3)cc(-c3cc4ccccc4oc3=O)n2)cc1 | > 100 µM (inactive) | 4.13 µM (inactive) | > 100 µM (inactive) | 30.9 µM | 3.54 µM (inactive) | 12.5 µM (inactive) | 16.6 µM (inactive) | 3.83 µM (inactive) | 10.2 µM (inactive) | 4.86 µM (inactive) |  | 9.79 µM (inactive) | > 100 µM (inactive) | 5.65 µM (inactive) | 2.51 µM (inactive) | 2.25 µM (inactive) | 4.99 µM (inactive) |  | 3.95 µM (inactive) | 12.7 µM (inactive)
COC(=O)C12CC3CC(CC(C(=O)O)(C3)C1)C2 | > 100 µM (inactive) | > 100 µM (inactive) |  | > 100 µM | > 100 µM (inactive) | > 100 µM (inactive) | > 100 µM (inactive) | > 100 µM (inactive) | > 100 µM (inactive) | > 100 µM (inactive) | > 100 µM (inactive) | > 100 µM (inactive) | > 100 µM (inactive) | > 100 µM (inactive) | > 100 µM (inactive) | > 100 µM (inactive) | > 100 µM (inactive) | > 100 µM (inactive) |  | > 100 µM (inactive)
COc1cc(/C=C/C(=O)C(C)(C)C)cc(OC)c1OC | 33.2 µM (inactive) | 39.7 µM (inactive) | 40 µM (inactive) | 61.8 µM | 37.8 µM (inactive) | 36.9 µM (inactive) | 33.3 µM (inactive) | 29.8 µM (inactive) | > 100 µM (inactive) | 50.1 µM (inactive) | 63 µM (inactive) | 30.2 µM (inactive) | 21.1 µM (inactive) |  | 25.9 µM (inactive) | > 100 µM (inactive) | 38.9 µM (inactive) | 34.3 µM (inactive) | 33.6 µM (inactive) | 19.7 µM (inactive)
CN1NC(c2ccccc2)=C(C#N)C(=O)CC1c1ccc(Br)cc1 (stereo not drawn) |  | 34 µM (inactive) |  | 24.3 µM | > 10 µM (inactive) |  | 20.9 µM (inactive) | 31.8 µM (inactive) | 28.8 µM (inactive) | 41.9 µM (inactive) | 48 µM (inactive) | 36.2 µM (inactive) | 29 µM (inactive) | 40.4 µM (inactive) | 16.6 µM (inactive) | 21.4 µM (inactive) | 11.9 µM (inactive) | 37.8 µM (inactive) | 0.123 µM (active) | 35.4 µM (inactive)
Cc1ccc(S(=O)OCC23CC4CC(CC(C4)C2)C3)cc1 (stereo not drawn) |  | > 100 µM (inactive) | > 100 µM (inactive) | > 100 µM | > 100 µM (inactive) | > 100 µM (inactive) | > 100 µM (inactive) | > 100 µM (inactive) | > 100 µM (inactive) | > 100 µM (inactive) | > 100 µM (inactive) | > 100 µM (inactive) | > 100 µM (inactive) | > 100 µM (inactive) | > 100 µM (inactive) | > 100 µM (inactive) | > 100 µM (inactive) | > 100 µM (inactive) | > 100 µM (inactive) | > 100 µM (inactive)
C=CCN1/C(=C(\C#N)c2nc3ccccc3[nH]2)Sc2c1nc[nH]c2=O | > 100 µM (inactive) | > 100 µM (inactive) | > 100 µM (inactive) | > 100 µM | 80.5 µM (inactive) | > 100 µM (inactive) | > 100 µM (inactive) | > 100 µM (inactive) | > 100 µM (inactive) | > 100 µM (inactive) | > 100 µM (inactive) | > 100 µM (inactive) | > 100 µM (inactive) | > 100 µM (inactive) | 31.4 µM (inactive) | > 100 µM (inactive) | > 100 µM (inactive) | > 100 µM (inactive) |  | 
O=C1NC2=C(CCCC/C2=N\O)C12CCCCC2 |  | > 100 µM (inactive) |  | > 100 µM | > 100 µM (inactive) | > 100 µM (inactive) | > 100 µM (inactive) | > 100 µM (inactive) | > 100 µM (inactive) |  | > 100 µM (inactive) | 80.9 µM (inactive) | 32.7 µM (inactive) | > 100 µM (inactive) | > 100 µM (inactive) | > 100 µM (inactive) | > 100 µM (inactive) |  | > 100 µM (inactive) | > 100 µM (inactive)
